Test results reported in US7741436B2, “Biologically active peptides and their use for repairing injured nerves” (priority 2001, dated 2010).

Legend:
Type in all cases: cell-based
[1] = test system: embryonal bodies of human CNS; assay: Attachment and neurite outgrowth of embryonal bodies on white matter of cryostat sections of adult human spinal cord (myelin influence); details: 5-10 μg/ml
Method: Embryonal bodies containing immature stem cells from spinal cord, or neocortex were obtained by placing the mechanically dissociated CNS-cells on 10 cm Petri dishes (Corning) in Neurobasal medium (Gibco, U.K.) with B27-supplement (Gibco, U.K.), antibiotics and 500 μM L-glutamine.
Cryostat sections (10 μm) of adult normal human spinal cord were cut in coronal plain on SuperFrost Plus slides (Menzel, Germany). Each slide had three sections. The slides with freshly cut sections were immediately placed in sterile Quadriperm-plates (In Vitro Systems & Services, Germany) and 10 ml of culture medium was added. The culture medium was 1.0% normal adult human serum in DMEM-F12 supplemented with penicillin and streptomycin. Two embryonal bodies were placed on areas of white matter on top of each section, and the cultures were placed in the incubator with 5% CO2/95% air at 98% humidity at +37° C. The KDI peptide (Multiple Peptide Systems, La Jolla, Calif.) was added in the medium at 1-10 μg/ml, and the 10-amino acid precursor (RDIAEIIKDI (SEQ ID NO: 1)) was added at equimolar concentrations. The control cultures received no peptide. After 10 days, the cultures were fixed and immunostained for neurofilament proteins and additional neuronal and glial markers to identify the neurites and cells within the embryonal bodies. Numbers of embryonal bodies attached, and extending neurites directly on the adult white matter tissue were counted on each slide and the results analyzed using one-way-variance-analysis (ANOVA). Numbers of long neurites (>100 μm) extending from embryonal bodies in control cultures and in cultures with 5-10 μg/ml of the KDI peptide in the culture medium were counted and a non-parametric Whitney-Mann test was used to analyze those results.

[2] = test system: human embryonic neocortical neurons; assay: Survival of human embryonic neocortical neurons on injured glial cells of the human spinal cord; details: 72 hrs
From the text: (§1) The CNS tissues were first placed in cold saline. The spinal cord tissues were identified under a stereomicroscope, and carefully freed of meninges. To obtain monolayer cultures of human spinal cord glial cells, the cells were dissociated by mechanical trituration using a Pasteur-pipette, and placed in Petri dishes (Corning, N.Y., USA) containing 10% fetal calf serum (Hyclone, Logan, UH) in DMEM-F12 (Gibco, U.K.) supplemented with penicillin and streptomycin as described (Liesi et al. 2001).
Human embryonic spinal cord glial cells were cultured till confluency in 10% fetal bovine serum as described (Liesi et al., 2001). The confluent cultures were trypsinized and cells replated at 100 000 cells/22 mm glass coverslip, and grown till confluency. The confluent cultures were changed into normal adult human serum, and injured by using a 18 G gauge sterile needle. The KDI peptide was added at 1 μg/ml (3 μM) and at 10 μg/ml (30 μM) concentration and the P1543 peptide (p20) was added at a concentration of 1 μM, and 50-100 000 freshly isolated human embryonic neocortical neurons were added on the glial cells. The control cultures had neurons added either without the peptide or the lesion. The cells were cultured for 72 hrs in 5% CO2/95% air at +37° C., and fixed for quantitation of neurons and measurement of their neuritic lengths. The neurons on glial monolayers were visualized by immunostaining using mouse monoclonal antibodies against a neuron-specific tubulin isoform (TUJ1). The results were evaluated by counting neurons in six random fields on 3 different coverslip per experiment. In this way, more than 300 neurons were counted per experiment. Statistical analysis of the results was performed using one-way analysis of Varians (ANOVA) and Student-Newman-Keuls multiple comparisons test on the Instat (v2.03) program (GraphPad, San Diego, Calif.).

[3] = test system: human embryonic spinal cord neurons; assay: Survival and neurite outgrowth of human embryonic spinal cord neurons on injured glial cells of the human spinal cord; details: for survival (numbers) of spinal cord neurons on lesioned glial monolayers / numbers of spinal cord neurons extending long neurites (>100 μm): 72 hrs; for numbers of spinal cord neurons extending long neurites (>100 μm): lesioned glial monolayers
From the text: as §1
Freshly isolated tissue from the human embryonic spinal cord (8-10 weeks of age) was mechanically dissociated and cells were plated at 50,000 on a 22 mm glass coverslip confluent with human embryonic spinal cord glia. The glial monolayers were injured using a 18 G needle prior to plating of the neurons. The cells were cultured in normal adult human serum for 72 hrs. The numbers of spinal cord neurons on the glial monolayers in the presence or absence of KDI (0.0355 μg/ml-1.0 μg/ml) was estimated on TUJ1-labelled cultures. The statistical analysis was performed using one-way-variance analysis (ANOVA), and the Student-Newman-Keuls multiple comparisons test.
Confluent cultures of the spinal cord glial cells were trypsinized using Trypsin-EDTA, and cells replated at a density of 5×10^4 on a 22 mm glass coverslip. The cells were cultivated until they formed confluent monolayers. At this point, their culture medium was changed into 10% normal adult human serum in DMEM-F12, and glial monolayers were injured using 18 G-needle. After injury, the KDI peptide (Multiple Peptide Systems, La Jolla, Calif., USA) was added into the culture medium after which a suspension of freshly dissociated cells from spinal cord or neocortex was added at 2×10^4 on one coverslip. After 24-48 hrs, the cultures were fixed in 2% paraformaldehyde in PBS, pH 7.4 for 15 min and immunostained for TUJ1 as described previously (Liesi et al., 2001).
Viability and neurite outgrowth of human CNS-neurons on the spinal cord glial cells were evaluated by counting 10 random fields of cells in 6 different cultures. A total of 265 cells were counted. The numbers of long neurites (>10 cell soma) were estimated similarly. One-way-variance analysis (ANOVA) was used to evaluate the results.

KDI
extension of neurofilament-positive neurites from spinal cord embryonal bodies on white matter ([1]; 10 days in vitro): long neurofilament-positive nerve fibres extend out of the embryonal bodies
numbers of long neurites extending from embryonal bodies onto white matter ([1]; 10 days in vitro, p<0.0001 vs control): a large number of long neurites extended
numbers of embryonal bodies attached and sending out neurites on white matter ([1]; 10 days, vs control (p<0.01) and vs P1543 (p<0.01)): significantly higher
attachment and neurite outgrowth of neocortical neurons on lesioned spinal cord glial cells ([2]; 1 μg/ml soluble peptide, vs lesion control): significantly (p<0.001) improved
improvement of attachment and neurite outgrowth of neocortical neurons compared to that induced by p20 (1 μg/ml) ([2]; 1 μg/ml): statistically significant
neuronal survival (attachment and neurite outgrowth) of neocortical neurons on lesioned spinal cord glial cells ([2]; 10 μg/ml soluble peptide, vs unlesioned and lesioned controls): no statistical difference of neuronal survival
survival (numbers) of spinal cord neurons on lesioned glial monolayers ([3]; 0.0355 μg/ml): significantly (p<0.001) enhanced survival
neurite extension of TUJ1-immunoreactive spinal cord neuron on injured glial monolayers ([3]; 0.1 μg/ml in culture medium, 48 hrs): extends a long neurite
survival (numbers) of spinal cord neurons on lesioned glial monolayers ([3]; 0.1 μg/ml): significantly (p<0.001) enhanced survival
numbers of spinal cord neurons extending long neurites (>100 μm) ([3]; 0.1 μg/ml, p<0.001): significantly increased the numbers of long neurites
survival (numbers) of spinal cord neurons on lesioned glial monolayers ([3]; 0.5 μg/ml): did not promote survival of the spinal cord neurons any better than the lesion by itself
survival (numbers) of spinal cord neurons on lesioned glial monolayers ([3]; 1.0 μg/ml): did not promote survival of the spinal cord neurons any better than the lesion by itself
numbers of spinal cord neurons extending long neurites (>100 μm) ([3]; 1.0 μg/ml, vs lesion-control): significantly increased the numbers of long neurites
